Reference: patent US7351724B2, “Oxadiazole ketone inhibitors of fatty acid amide hydrolase” (The Scripps Research Institute, priority 2004, dated 2008)
Read-outs that look alike come from different tables or passages of the source.

How the values were obtained:
FAAH [1] = target: T1, FAAH (Rattus norvegicus, UniProt P97612); assay: FAAH enzyme assay, hydrolysis of 14C-oleamide by solubilized liver plasma membrane extract; type: biochemical
T1 construct: using a solubilized liver plasma membrane extract containing FMH; from tissue; host or cells: liver plasma membrane (solubilized extract)
T1 sequence (P97612 1-579): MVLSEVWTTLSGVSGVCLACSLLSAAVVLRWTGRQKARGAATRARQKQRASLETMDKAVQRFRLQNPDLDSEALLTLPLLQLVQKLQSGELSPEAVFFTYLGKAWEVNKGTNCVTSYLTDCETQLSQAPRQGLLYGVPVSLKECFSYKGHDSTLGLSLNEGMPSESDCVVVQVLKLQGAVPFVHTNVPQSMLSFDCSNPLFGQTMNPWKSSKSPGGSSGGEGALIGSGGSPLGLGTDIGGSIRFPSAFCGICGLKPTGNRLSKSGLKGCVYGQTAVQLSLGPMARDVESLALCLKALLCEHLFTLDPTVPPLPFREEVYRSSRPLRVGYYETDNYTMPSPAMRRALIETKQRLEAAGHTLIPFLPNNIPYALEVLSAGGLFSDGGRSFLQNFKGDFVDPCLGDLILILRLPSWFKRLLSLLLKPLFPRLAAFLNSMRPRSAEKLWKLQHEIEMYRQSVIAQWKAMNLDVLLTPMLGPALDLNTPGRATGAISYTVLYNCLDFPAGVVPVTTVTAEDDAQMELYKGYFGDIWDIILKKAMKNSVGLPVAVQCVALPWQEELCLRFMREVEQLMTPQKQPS
Experimental: All enzyme assays were performed at 20-23° C. using a solubilized liver plasma membrane extract containing […] in a reaction buffer of 125 mM Tris, 1 mM EDTA, 0.2% glycerol, 0.02% Triton X-100, 0.4 mM HEPES, pH 9.0 buffer (Patricelli, M. P. et al. Bioorg. Med. Chem. Lett. 1998, 8, 613-618; Patterson, J. E., et al. J. Am Chem. Soc. 1996, 118, 5938-5945). The initial rates of hydrolysis were monitored by following the breakdown of ^14C-oleamide to oleic acid as described previously (Cravatt, B. F. et al. Science 1995, 268, 1506-1509; Patricelli, M. P. et al., 1998). The inhibition was reversible, non time-dependent. Linear least squares fits were used for all reaction progress curves and R^2 values were consistently >0.97. IC50 values were determined from the inhibition observed at 3-5 different test compound concentrations (from three or more trials at each concentration) using the formula IC50=[I]/[(K0/Ki)−1], where K0 is the control reaction rate without inhibitor and Ki is the rate with test compound at concentration [I] (Conde-Frieboes, K., et al. J. Am. Chem. Soc. 1996, 118, 5519-5525). Ki values were determined by the Dixon Method (x-intercepts of weighted linear fits of [I] versus 1/rate plots at constant substrate concentration, which were converted to Ki values using the formula Ki=−xint/[1+[S]/Km]).

FAAH [2] = target: T2, FAAH (Mus musculus, UniProt O08914); assay: Proteome-wide serine hydrolase selectivity screen, competition with RPFP active site labeling; type: binding; details: inhibition of RPFP labeling
T2 construct: from tissue
T2 sequence (O08914 1-579): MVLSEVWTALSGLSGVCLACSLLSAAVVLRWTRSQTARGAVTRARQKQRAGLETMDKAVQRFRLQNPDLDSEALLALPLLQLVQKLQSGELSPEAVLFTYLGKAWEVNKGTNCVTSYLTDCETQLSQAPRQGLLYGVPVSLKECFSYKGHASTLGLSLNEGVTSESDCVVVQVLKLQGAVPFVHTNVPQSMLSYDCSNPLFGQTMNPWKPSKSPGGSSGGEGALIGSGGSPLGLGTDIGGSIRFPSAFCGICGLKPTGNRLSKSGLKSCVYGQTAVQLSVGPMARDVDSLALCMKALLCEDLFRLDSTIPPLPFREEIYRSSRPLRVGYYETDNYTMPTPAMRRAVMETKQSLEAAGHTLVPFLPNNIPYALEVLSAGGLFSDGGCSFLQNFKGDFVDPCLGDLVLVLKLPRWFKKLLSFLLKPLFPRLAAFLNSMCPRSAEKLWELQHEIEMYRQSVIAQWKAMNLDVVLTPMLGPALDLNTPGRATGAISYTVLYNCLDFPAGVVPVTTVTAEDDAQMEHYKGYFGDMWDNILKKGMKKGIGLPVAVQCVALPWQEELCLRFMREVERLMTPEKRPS
Source text: (§1) Serine hydrolases represent one of the largest classes of enzymes collectively comprising approximately 3% of the predicted Drosophila proteome. Subclasses include serine proteases, lipases, esterases, amidases, and transacetylases.

KIAA1363 = target: T3, KIAA1363 (Mus musculus, UniProt Q8BLF1); assay: as above; type: binding; details: inhibition of RPFP labeling, read-out: KIAA IC50
T3 construct: from tissue
T3 sequence (Q8BLF1 1-408): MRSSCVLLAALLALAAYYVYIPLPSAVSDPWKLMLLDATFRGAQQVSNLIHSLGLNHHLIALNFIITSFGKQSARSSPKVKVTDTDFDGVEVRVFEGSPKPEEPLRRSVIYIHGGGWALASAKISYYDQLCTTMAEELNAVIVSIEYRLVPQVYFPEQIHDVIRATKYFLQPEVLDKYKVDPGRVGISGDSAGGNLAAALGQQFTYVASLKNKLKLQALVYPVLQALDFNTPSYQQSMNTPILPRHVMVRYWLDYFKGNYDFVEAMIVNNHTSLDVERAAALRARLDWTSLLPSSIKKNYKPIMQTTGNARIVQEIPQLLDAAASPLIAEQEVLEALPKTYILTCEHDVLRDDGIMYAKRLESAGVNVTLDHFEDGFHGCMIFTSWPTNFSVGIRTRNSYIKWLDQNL
Source text: as §1

[3] = target: T4, triacylglycerol hydrolase (TGH) (Mus musculus, UniProt Q8VCT4); assay: as above; type: binding; details: inhibition of RPFP labeling
T4 construct: from tissue
T4 sequence (Q8VCT4 19-565): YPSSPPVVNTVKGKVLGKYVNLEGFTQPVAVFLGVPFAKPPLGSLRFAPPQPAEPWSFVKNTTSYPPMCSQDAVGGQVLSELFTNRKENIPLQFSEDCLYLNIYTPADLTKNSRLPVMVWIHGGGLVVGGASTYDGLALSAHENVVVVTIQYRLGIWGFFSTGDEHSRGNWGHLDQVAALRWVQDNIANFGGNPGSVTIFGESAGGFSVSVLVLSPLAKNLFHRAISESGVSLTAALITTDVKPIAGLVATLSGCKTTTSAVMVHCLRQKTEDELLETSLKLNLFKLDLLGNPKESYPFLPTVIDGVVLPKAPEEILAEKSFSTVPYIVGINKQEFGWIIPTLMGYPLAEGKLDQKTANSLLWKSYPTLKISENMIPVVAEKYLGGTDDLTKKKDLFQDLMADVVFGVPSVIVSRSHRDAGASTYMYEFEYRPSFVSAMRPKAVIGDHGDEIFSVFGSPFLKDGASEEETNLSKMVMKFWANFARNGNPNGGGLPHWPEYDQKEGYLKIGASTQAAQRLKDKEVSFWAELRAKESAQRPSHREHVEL
Source text: as §1
Biotinylated (B) or fluorescently-tagged (rhodamine, R) PEG-fluorophosphonate (BPFP or RPFP, respectively) have been used to isolate and identify (BPFP) or quantitate (RPFP) proteome serine hydrolases through selective, irreversible active site labeling (Kidd, D., et al., 2001; Liu, Y., et al., 1999). Extending this to the assessment of inhibitor selectivity required incubation of the proteome with RPFP in the presence of systematically varied concentrations of inhibitor followed by SDS-PAGE to detect serine hydrolases sensitive to the inhibitor (Leung, D., et al., 2003). A resulting inhibition of RPFP active site labeling correlated with inhibitor affinity for the target and permitted the simultaneous assessment of competitive enzymes.
Two enzymes emerged from the screen as competitive targets for the oxadiazole ketone compounds detailed herein: triacylglycerol hydrolase (TGH) and an uncharacterized membrane-bound hydrolase that lacks known substrates and function (KIAA1363) (Kidd, D., et al., 2001; Liu, Y., et al., 1999; Leung, D., et al., 2003).

rats [4] = details: Kathuria 2003; cited from earlier work
rats [5] = details: cited from earlier work
rats [6] = details: rat; Kathuria 2003; cited from earlier work
FAAH [7] = target: T5, FAAH (Homo sapiens, UniProt O00519); details: cited from earlier work
T5 sequence (O00519 1-579): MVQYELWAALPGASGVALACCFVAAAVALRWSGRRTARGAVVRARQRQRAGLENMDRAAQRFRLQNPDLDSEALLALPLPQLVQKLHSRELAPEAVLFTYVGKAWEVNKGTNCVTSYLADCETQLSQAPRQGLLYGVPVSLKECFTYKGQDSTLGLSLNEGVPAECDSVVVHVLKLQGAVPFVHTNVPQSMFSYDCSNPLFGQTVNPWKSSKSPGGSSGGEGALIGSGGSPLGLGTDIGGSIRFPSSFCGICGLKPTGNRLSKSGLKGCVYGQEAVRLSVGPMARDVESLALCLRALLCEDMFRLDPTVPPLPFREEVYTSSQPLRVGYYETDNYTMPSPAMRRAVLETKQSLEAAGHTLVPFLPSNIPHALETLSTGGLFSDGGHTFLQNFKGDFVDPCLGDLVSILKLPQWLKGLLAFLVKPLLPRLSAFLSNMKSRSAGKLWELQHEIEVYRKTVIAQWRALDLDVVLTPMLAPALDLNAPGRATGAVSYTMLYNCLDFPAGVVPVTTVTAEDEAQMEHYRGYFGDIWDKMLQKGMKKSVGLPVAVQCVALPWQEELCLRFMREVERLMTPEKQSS

rats [8] = details: WO 04/033652; cited from earlier work
rats [9] = details: WO 02/087569; cited from earlier work
rats [10] = details: WO 02/087569; cited from earlier work; remark: listed apart in the source
CREAE mice = details: Baker 2001; cited from earlier work
[11] = Table 1, Dixon method, 14C-oleamide substrate, pH 9.0, 20-23° C., read-out: Ki
[12] = Table 2 (repeats the enzyme assay Ki), read-out: FAAH Ki

Structure (SMILES) | Ki (FAAH [1]; [11]) [nM] | IC50 (FAAH [2]) [nM] | IC50 (KIAA1363) [nM] | IC50 [3] [nM] | further results
O=C(CCCCCCCCc1ccccc1)c1nnc(-c2ccccn2)o1 [Example 4, 9-Phenyl-1-[5-(pyridin-2-yl)-1,3,4-oxadiazol-2-yl]-nonan-1-one] | 0.83 | 0.8 | 3000 | 500 | Ki (FAAH [1]; [12]): 0.83 nM
O=C(CCCCCCc1ccccc1)c1nnc(-c2cccnc2)o1 [Example 9, 7-Phenyl-1-[5-(pyridin-3-yl)-1,3,4-oxadiazol-2-yl]-heptan-1-one] | 1 | 20 | > 100000 | 100 | 
O=C(CCCCCCc1ccccc1)c1nnc(-c2ccncc2)o1 [Example 10, 7-Phenyl-1-[5-(pyridin-4-yl)-1,3,4-oxadiazol-2-yl]-heptan-1-one] | 1 | 20 | > 100000 | 30 | 
CCCCCCCC/C=C\CCCCCCCC(=O)c1nnc(-c2ccccc2)o1 [Example 7, 1-(5-Phenyl-1,3,4-oxadiazol-2-yl)-octadec-9-en-1-one] | 16 |  |  |  | 
NC(=O)c1cccc(-c2cccc(OC(=O)NC3CCCCC3)c2)c1 [URB-597] |  |  |  |  | efficacy in zero plus maze model of anxiety (rats [4]): efficacy; analgesic efficacy/activity in hot plate test (rats [5]): analgesic efficacy; analgesic efficacy in formalin test (rats [6]): analgesic efficacy
O=C(CCCCCCc1ccccc1)c1nnc(-c2ccccn2)o1 [Example 1, 7-Phenyl-1-[5-(pyridin-2-yl)-1,3,4-oxadiazol-2-yl]-heptan-1-one] |  | 1 | 50000 | 140 | 
O=C(CCCCCc1ccccc1)c1nnc(-c2ccccn2)o1 [Example 2, 6-Phenyl-1-[5-(pyridin-2-yl)-1,3,4-oxadiazol-2-yl]-hexan-1-one] | 0.85 | 4 | 90000 | 30 | 
O=C(CCCCCCc1ccccc1)c1nnc(-c2ccccc2)o1 [Example 6, 7-Phenyl-1-(5-phenyl-1,3,4-oxadiazol-2-yl)-heptan-1-one] | 2 | 25 | > 100000 | 250 | Ki (FAAH [1]; [12]): 2 nM
O=C(CCCCCCc1ccccc1)c1ncc(-c2ccccn2)o1 [OL-135] |  |  |  |  | FAAH inhibition (FAAH [7]): potent inhibitor; analgesic efficacy/activity in hot plate test (rats [5]): analgesic activity; analgesic activity in tail emersion test (rats [8]): analgesic activity
Cc1nc(-c2ccccc2)c(-c2ccccc2)n1CCCCCCNC(=O)Oc1ccccc1F [BMS-1] |  |  |  |  | analgesic effect, Hargraves test (rats [9]): analgesic effect; analgesic effect, Chung spinal nerve ligation model (rats [10]): analgesic effect
O=C(CCCCCCc1ccccc1)c1nnc(-c2ccco2)o1 [Example 11] |  | 1 | > 100000 | 80 | 
CCCCCCCC/C=C\CCCCCCCC(=O)c1nnc(-c2ccccn2)o1 [Example 5, 1-[5-(Pyridin-2-yl)-1,3,4-oxadiazol-2-yl]-octadec-9-en-1-one] | 3 |  |  |  | 
O=C(CCCCCCCc1ccccc1)c1nnc(-c2ccccn2)o1 [Example 3, 8-Phenyl-1-[5-(pyridin-2-yl)-1,3,4-oxadiazol-2-yl]-octan-1-one] | 0.77 | 0.6 | 60000 | 200 | 
CCCCCCCCCCCCCCCCS(=O)(=O)F [AM374] |  |  |  |  | spasticity (CREAE mice): significantly reduce spasticity
